Assay results published in patent publication US12396966B2, “Pharmaceutical compositions and oral dosage forms of ketamine derivatives” (XWPHARMA LTD., priority 2021, dated 2025).

Key:
[1] = target: CYP3A4 (Homo sapiens, UniProt P08684); assay: Preclinical studies: metabolism of compound (39) to release esketamine; assay type: in vitro ADME
[2] = Preclinical pharmacokinetic studies: dose proportionality and repeated dosing; assay type: in vivo
[3] = Two-stage dissolution of tablets (0.1N HCl 1 hour, then 50 mM acetate buffer pH 4.5); assay type: physicochemical; details: FIG. 2
Experimental: The two-stage dissolution profiles were obtain as described in Example 5.
A two-stage dissolution apparatus was used to measure the dissolution profile of the tablets.
In the first stage, the tablets were immersed in 0.1N HCl a dissolution medium for 1 hour.
The dissolution medium was then immediately charged to a 50 mM acetate buffer at pH 4.5 immediately following 1 hour sampling via addition of 100 mM acetate buffer with appropriate pH and continued through 18 hours.
Two-stage dissolution profiles for the tablets were obtained using a USP 1 dissolution apparatus. The tablets were first added to 500 mL of a 0.1N hydrochloric acid solution and agitated at 100 RPM for 1 hour at 37° C. Samples (1 mL) were withdrawn at 0, 0.5 and 1 hours. The acid solution was then replaced with 1,000 mL of a 50 mM pH 4.5 acetate buffer solution and the tablets agitated at 100 RPM for up to 24 hours at 37° C. Samples (1 mL) were withdrawn at 1.5, 2, 3, 4, 6, 8, 12, 16, 20, and 24 hours. Solution samples were withdrawn at intervals and the concentration of Compound (39) was measured using high pressure liquid chromatography mass spectroscopy.

[4] = Preclinical pharmacokinetic studies; assay type: in vivo; details: mice
[5] = target: CYP2D6 (Homo sapiens, UniProt P10635); assay: Preclinical studies: metabolism of compound (39) to release esketamine; assay type: in vitro ADME
[6] = Preclinical pharmacokinetic studies; assay type: in vivo; details: rats
[7] = target: CYP2C19 (Homo sapiens, UniProt P33261); assay: Preclinical studies: metabolism of compound (39) to release esketamine; assay type: in vitro ADME
[8] = Preclinical pharmacokinetic studies; assay type: in vivo; details: monkeys
[9] = Preclinical pharmacokinetic studies; assay type: in vivo; details: dogs
[10] = humans; cited from earlier work

Sequence of CYP3A4 (P08684 whole entry, species assumed): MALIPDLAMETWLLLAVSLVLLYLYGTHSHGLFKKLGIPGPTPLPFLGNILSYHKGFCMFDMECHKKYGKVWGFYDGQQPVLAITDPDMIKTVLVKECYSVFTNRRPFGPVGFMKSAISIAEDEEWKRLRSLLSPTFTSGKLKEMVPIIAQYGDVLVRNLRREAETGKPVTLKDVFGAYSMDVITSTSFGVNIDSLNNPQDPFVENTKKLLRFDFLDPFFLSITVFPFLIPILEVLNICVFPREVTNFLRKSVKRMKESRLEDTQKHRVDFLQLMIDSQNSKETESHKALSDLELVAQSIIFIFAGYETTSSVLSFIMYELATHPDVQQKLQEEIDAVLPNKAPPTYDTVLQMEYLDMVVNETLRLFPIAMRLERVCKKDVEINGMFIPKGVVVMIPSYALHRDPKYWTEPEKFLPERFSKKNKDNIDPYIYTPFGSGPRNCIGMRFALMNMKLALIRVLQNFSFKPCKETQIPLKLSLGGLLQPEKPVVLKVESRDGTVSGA
Sequence of CYP2C19 (P33261 whole entry, species assumed): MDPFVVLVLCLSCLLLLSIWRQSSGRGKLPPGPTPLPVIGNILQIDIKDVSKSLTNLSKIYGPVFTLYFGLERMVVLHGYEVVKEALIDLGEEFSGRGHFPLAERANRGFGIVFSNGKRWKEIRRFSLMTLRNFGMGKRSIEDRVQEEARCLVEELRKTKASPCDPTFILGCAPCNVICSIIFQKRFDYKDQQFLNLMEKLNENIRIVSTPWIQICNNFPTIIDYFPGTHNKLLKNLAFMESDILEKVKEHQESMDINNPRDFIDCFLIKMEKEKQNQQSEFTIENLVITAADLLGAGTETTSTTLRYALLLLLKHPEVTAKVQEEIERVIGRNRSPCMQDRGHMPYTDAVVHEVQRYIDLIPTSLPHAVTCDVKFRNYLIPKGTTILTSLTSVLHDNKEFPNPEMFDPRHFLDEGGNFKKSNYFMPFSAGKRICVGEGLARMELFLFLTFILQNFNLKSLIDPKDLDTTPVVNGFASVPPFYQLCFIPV
Sequence of CYP2D6 (P10635 whole entry, species assumed): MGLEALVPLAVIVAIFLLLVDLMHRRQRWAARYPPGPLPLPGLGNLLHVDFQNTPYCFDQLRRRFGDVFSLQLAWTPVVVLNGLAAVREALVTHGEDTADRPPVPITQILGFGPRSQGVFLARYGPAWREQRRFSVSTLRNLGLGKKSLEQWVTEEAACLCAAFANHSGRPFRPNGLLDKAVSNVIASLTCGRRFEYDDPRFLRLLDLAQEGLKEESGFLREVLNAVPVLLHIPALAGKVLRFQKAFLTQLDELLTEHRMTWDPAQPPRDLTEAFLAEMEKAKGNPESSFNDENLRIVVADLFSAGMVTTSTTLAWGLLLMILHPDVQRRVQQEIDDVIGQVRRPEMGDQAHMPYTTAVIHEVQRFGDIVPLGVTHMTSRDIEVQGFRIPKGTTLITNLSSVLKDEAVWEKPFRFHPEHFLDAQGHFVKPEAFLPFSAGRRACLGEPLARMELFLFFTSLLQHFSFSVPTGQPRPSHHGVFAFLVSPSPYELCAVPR

CC(C)[C@@H](C(=O)OCOC(=O)N(C)[C@]1(c2ccccc2Cl)CCCCC1=O)N(C)C [compound (39), ((((S)-1-(2-chlorophenyl)-2-oxocyclohexyl)(methyl)carbamoyl)oxy)methyl dimethyl-L-valinate]
metabolism by CYP3A4 to release esketamine [1]: metabolized
accumulation of compound (39) and its metabolites ([2]; following repeated dosing): not observed
systemic exposure, expressed as AUC: dose proportionality ([2]; for compound (39), esketamine, and noresketamine): less than to greater than dose proportional
effect of sodium lauryl sulfate on solubility of compound (39) ([3]; acid stage (0.1N HCl), tablets with and without sodium lauryl sulfate): reduces the solubility
dissolution rate ([3]; pH 4.5, tablets with and without sodium lauryl sulfate): approximately independent of the amount of sodium lauryl sulfate
absorption and conversion to esketamine [4]: rapid absorption and conversion to esketamine
metabolism by CYP2D6 to release esketamine [5]: metabolized
absorption and conversion to esketamine [6]: rapid absorption and conversion to esketamine
metabolism by CYP2C19 to release esketamine [7]: metabolized
absorption and conversion to esketamine [8]: rapid absorption and conversion to esketamine
absorption and conversion to esketamine [9]: rapid absorption and conversion to esketamine

CNC1(c2ccccc2Cl)CCCCC1=O (stereo not drawn) [Ketamine, 2-(2-chlorophenyl)-2-(methylamino)cyclohexan-one]
oral bioavailability (% F) [10]: about 20%
